The results in this text go back to patent US10940139B2, “Compounds that interact with the Ras superfamily for the treatment of cancers, inflammatory diseases, rasopathies, and fibrotic disease” (Shy Therapeutics LLC, priority 2017, dated 2021).

SMILES strings stand for the structures.

The first assay concerns MIA-PACA2 pancreatic cancer cell lines. In words: Cell proliferation assay, alternate assay conditions (DAPI fluorescence). The format is cell-based. Particulars: Homo sapiens, MIA PaCa-2; * = tested at 10 μM, alternate conditions, MIA-PACA2. As for the experimental part: Cell lines: Tumor-derived pancreatic cancer cell lines MIA-PACA2 were purchased from ATCC and grown in complete DMEM-High Glucose medium supplemented with penicillin (100 U/mL), streptomycin (100 μg/mL), and 10% heat-inactivated FBS at 37° C. in a humidified incubator with 5% CO2.
Method: Cells are plated at 4000 cells/well density in 96-wells plate. The next day tested small molecules are added to the cells in the final concentration of 10 μM in the presence of 0.3% DMSO and 10% FBS. After small molecules addition, cells are incubated for 4 days at 37° C. in a humidified incubator with 5% CO2. For IC50 value determination, serial dilutions of compounds were added to cells under the same conditions.
Assay: At the end of the incubation period, cell cultures are fixed with a 50-50 mixture (v/v) acetone-methanol for 10 minutes at −20° C., followed by rehydration in PBS for 10 minutes at room temperature. After rehydration, cells are stained with DAPI (1 μg/ml) in PBS for 10 minutes at room temperature, followed by 3 washes with PBS. After staining, DAPI fluorescence is recorded (358 nm excitation/461 nm emission) with the 96-well plate reader Molecular Devices Spectramax M3; degree of small mole-cule-dependent proliferation inhibition is calculated from raw data assuming No Serum cells value as 100%.
The term inhibition denotes the drop in the measured response relative to a control, in per cent. Low readings indicate little suppression, high ones strong suppression. For `COCCNc1nc(-c2ccccn2)nc2c1c(-c1ccccc1)nn2-c1ccccn1` [drawing 1840], the inhibition at 10 µM was in the range of 76 to 100%.
In turn, `COc1nc(-c2ccccn2)nc2c1c(-c1ccccc1)nn2-c1ccccn1` [drawing 1842] yielded an inhibition at 10 µM of 76 to 100%.
Same read-out and setting: in the case of `COc1ccc(COC[C@H]2O[C@@H](c3csc4c(=O)[nH]c(-c5ccccn5)nc34)[C@H](O)[C@@H]2O)cc1` [drawing 1835] it was 1 to 25%.
`COc1c(O)nc(-c2ccccn2)nc1Oc1cccc(C(F)(F)F)c1` [drawing 1859] showed an inhibition at 10 µM of 76 to 100%.
Compound `Cn1ccnc1-c1nc(NCCOC(F)(F)F)c2c(-c3ccccc3)c(-c3ccccc3)sc2n1` [drawing 1870] had an inhibition at 10 µM of 76 to 100%.
The same measure, in the same setting: in the case of `Oc1nc(-c2ccccn2)nc2c(C3CCCC3)csc12` [drawing 1812] it was 76 to 100%.
The same measure, in the same setting: as for `COC1CCN(c2nc(-c3nccn3C)nc3sc(-c4ccccc4)c(-c4ccccc4)c23)C1` (centres unmarked) [drawing 1873], the figure is 76 to 100%; as for `Cn1ccnc1-c1nc(O)c2sc(-c3ccccc3)c(-c3ccccc3Cl)c2n1` [drawing 1897], 76 to 100%; as for `Cn1ccnc1-c1nc(O)c2scc(-c3ccccc3)c2n1` [drawing 1916], 76 to 100%.
On the same count and under the same terms, in the case of `COc1nc(-c2ccccn2)nc2c(-c3cccc(O)n3)csc12` it was 76 to 100%.
The compound `Cn1cnc(-c2nc(O)c3c(-c4ccccc4)c(-c4ccc(CNC(=O)OC(C)(C)C)cc4)sc3n2)c1` [drawing 1839] yielded an inhibition at 10 µM of 25 to 50%.
For the compound `COc1cnc(CNC(=O)c2cc3nc(-c4ccccn4)nc(O)c3s2)[nH]c1=O` [drawing 1823], the inhibition at 10 µM lay in the range of 25 to 50%.
Still for that read-out and setting: in the case of `Cc1sc2c(O)nc(-c3nccn3C)nc2c1-c1ccc(OC(C)C)c(F)c1` [drawing 1912] it was 76 to 100%; in that of `Cc1sc2c(O)nc(-c3ccccn3)nc2c1C(=O)N1CCN(Cc2cccc(O)c2)CC1` [drawing 1809], 25 to 50%; in that of `Cn1ccnc1-c1nc(NCCCO)c2c(-c3ccccc3)c(-c3ccccc3)sc2n1` [drawing 1881], 76 to 100%.
Turning to `OCC1(c2ccc(-c3nc(-c4ccccn4)nc(-c4ccc(C5(CO)CC5)cc4)c3Oc3ccccc3)cc2)CC1` [drawing 1834], the inhibition at 10 µM is 76 to 100%.
In the case of `COCC(C)Nc1nc(-c2nccn2C)nc2sc(-c3ccccc3)c(-c3ccccc3)c12` (centres unmarked) [drawing 1879], the inhibition at 10 µM fell in the range of 76 to 100%.
With `COCCNc1nc(-c2nccn2C)nc2sc(-c3ccccc3)c(-c3ccccc3Cl)c12` [drawing 1882], the inhibition at 10 µM was 76 to 100%.
`Cc1sc2c(O)nc(-c3nccn3C)nc2c1-c1ccc(OCC(C)C)nc1` [drawing 1902] came in with an inhibition at 10 µM of 76 to 100%.
Regarding `CC(C)COc1ccc(-c2csc3c(O)nc(-c4cn(C)cn4)nc23)cn1` [drawing 1907], the inhibition at 10 µM was 76 to 100%.
Compound `COc1cnc(CNC(=O)c2sc3c(O)nc(-c4ccccn4)nc3c2C)[nH]c1=O` [drawing 1826] yielded an inhibition at 10 µM of 0%.
Regarding `Oc1nc(-c2ccccn2)nc(Oc2cccc(C(F)(F)F)c2)c1O` [drawing 1860], the inhibition at 10 µM is 76 to 100%.
The same measure, in the same setting: in the case of `Cc1ccc(-c2cc3nc(-c4ccccn4)nc(O)c3s2)cc1` [drawing 1857] it was 76 to 100%; in that of `Cn1ccnc1-c1nc(O)c2sc(-c3ccccc3)c(-c3ccccc3)c2n1` [drawing 1890], 51 to 75%; in that of `Oc1nc(-c2ccccn2)nc2c(-c3cncnc3)csc12` [drawing 1801], 0%.
The same measure, in the same setting: in the case of `COC(C)(C)c1ccc(-c2csc3c(O)nc(-c4nccn4C)nc23)cc1` [drawing 1920] it was 76 to 100%.
`Nc1nc(O)c2sc(-c3cccc(C(=O)NC4CCNC4=O)c3)cc2n1` (centres unmarked) [drawing 1844] had an inhibition at 10 µM of 0%.
Same read-out and setting: as for `CC(CO)Nc1nc(-c2nccn2C)nc2sc(-c3ccccc3)c(-c3ccccc3)c12` (centres unmarked) [drawing 1880], the figure is 76 to 100%; as for `COCCNc1nc(-c2nccn2C)nc2sc(-c3ccncc3)c(-c3ccccc3)c12` [drawing 1884], 76 to 100%; as for `COCCNc1nc(-c2ccccn2)nc2sc(-c3ccccc3)c(-c3ccccn3)c12` [drawing 1922], 76 to 100%.
In turn, `COCCNc1nc(-c2nccn2C)nc2sc(-c3ccccc3)c(-c3ccncc3)c12` [drawing 1898] yielded an inhibition at 10 µM of 76 to 100%.
On the same count and under the same terms, in the case of `Cn1ccnc1-c1nc(O)c2c(-c3ccccc3)c(-c3ccccc3)sc2n1` [drawing 1838] it was 76 to 100%; in that of `Cn1ccnc1-c1nc(O)c2scc(-c3ccccc3Cl)c2n1` [drawing 1917], 76 to 100%; in that of `COCCNc1nc(-c2nccn2C)nc2sc(-c3ccccc3)c(-c3ccccc3)c12` [drawing 1837], 76 to 100%.
`N#Cc1cccc(-c2csc3c(O)nc(-c4ccccn4)nc23)c1` [drawing 1800] showed an inhibition at 10 µM of 76 to 100%.
On the same count and under the same terms, as for `CCOCCNc1nc(-c2nccn2C)nc2sc(-c3ccccc3)c(-c3ccccc3)c12` [drawing 1877], the figure is 76 to 100%; as for `O=c1[nH]c(-c2ccccn2)nc2c([C@@H]3O[C@H](CO)[C@@H](O)[C@H]3O)csc12` [drawing 1829], 76 to 100%.
For the compound `NC(=O)C1CCCN1C(=O)c1cccc(-c2cc3nc(N)nc(O)c3s2)c1` (centres unmarked) [drawing 1846], the inhibition at 10 µM lay in the range of 51 to 75%.
As for `CC(C)Oc1ccc(-c2csc3c(O)nc(-c4nccn4C)nc23)cc1F` [drawing 1911], the inhibition at 10 µM was in the range of 76 to 100%.
Turning to `Cn1ccnc1-c1nc(NCCOC2CC2)c2c(-c3ccccc3)c(-c3ccccc3)sc2n1` [drawing 1878], the inhibition at 10 µM was in the range of 76 to 100%.
For `Cn1cnc(-c2nc(O)c3scc(-c4cccc(OC(F)(F)F)c4)c3n2)c1` [drawing 1908], the inhibition at 10 µM was in the range of 76 to 100%.
The compound `Cc1sc2c(O)nc(-c3nccn3C)nc2c1-c1ccc(F)cc1F` [drawing 1923] had an inhibition at 10 µM of 76 to 100%.
As to `Oc1nc(-c2ncccn2)nc2c(-c3cccc(C(F)(F)F)c3)csc12` [drawing 1910], the inhibition at 10 µM lay in the range of 76 to 100%.
Same read-out and setting: as for `COCCNc1nc(-c2nccn2C)nc2sc(C)c(-c3ccccc3)c12` [drawing 1886], the figure is 76 to 100%; as for `CCC(C)Nc1nc(-c2ccccn2)nc2sc(-c3ccncc3)c(-c3ccccc3)c12` (centres unmarked), 51 to 75%.
On the same count and under the same terms, in the case of `COCCNc1nc(-c2cn(C)cn2)nc2sc(-c3ccccc3)c(-c3ccccc3)c12` [drawing 1885] it was 76 to 100%; in that of `Oc1nc(-c2ccccn2)nc2cc(-c3ccc(-c4ccccc4)cc3)sc12` [drawing 1861], 76 to 100%; in that of `COCCNc1nc(-c2nccn2C)nc2sc(-c3ccc(OC)cc3)c(-c3ccccc3)c12` [drawing 1899], 76 to 100%.
Still for that read-out and setting: as for `COc1nc(-c2ccccn2)nc(Oc2cccc(C(F)(F)F)c2)c1O` [drawing 1867], the figure is 1 to 25%.
For the compound `COc1cnc(-c2nccn2C)nc1O` [drawing 1815], the inhibition at 10 µM fell in the range of 51 to 75%.

Staying with this assay, now noted: Homo sapiens, MIA PaCa-2; MIA-PACA2, same assay as the % inhibition (alternate conditions).
The term IC50 denotes the midpoint of a concentration-inhibition curve. `COC1CCN(c2nc(-c3nccn3C)nc3sc(-c4ccccc4)c(-c4ccccc4)c23)C1` (centres unmarked) [drawing 1873] yielded an IC50 of 501 to 1000 nM.
Same read-out and setting: as for `Cn1ccnc1-c1nc(O)c2sc(-c3ccccc3)c(-c3ccccc3Cl)c2n1` [drawing 1897], the figure is 100 to 500 nM; as for `COCC(C)Nc1nc(-c2nccn2C)nc2sc(-c3ccccc3)c(-c3ccccc3)c12` (centres unmarked) [drawing 1879], 501 to 1000 nM.
`COCCNc1nc(-c2nccn2C)nc2sc(-c3ccccc3)c(-c3ccccc3Cl)c12` [drawing 1882]: the IC50 is more than 1000 nM.
On the same count and under the same terms, as for `COCCNc1nc(-c2nccn2C)nc2sc(-c3ccccc3)c(-c3ccccc3)c12` [drawing 1837], the figure is 501 to 1000 nM.
Same read-out and setting: in the case of `CCOCCNc1nc(-c2nccn2C)nc2sc(-c3ccccc3)c(-c3ccccc3)c12` [drawing 1877] it was 501 to 1000 nM; in that of `COCCNc1nc(-c2nccn2C)nc2sc(C)c(-c3ccccc3)c12` [drawing 1886], 501 to 1000 nM.
In the case of `COCCNc1nc(-c2cn(C)cn2)nc2sc(-c3ccccc3)c(-c3ccccc3)c12` [drawing 1885], the IC50 was more than 1000 nM.
Still for that read-out and setting: as for `COCCNc1nc(-c2nccn2C)nc2sc(-c3ccc(OC)cc3)c(-c3ccccc3)c12` [drawing 1899], the figure is 100 to 500 nM.
